Experimental findings from US12403137B2, “Compounds and methods of use” (Tango Therapeutics, Inc., priority 2019, dated 2025) are described below.

pIC50: −log10 of the molar value.

Experiment [1] concerns the target T1, PRMT5 (Homo sapiens, UniProt O14744).
T1 construct: purchased Viva (custom protein)
The experiment can be described thus: PRMT5 inhibition assay with MTA as cofactor. Conditions: for pIC50: against PRMT5 with MTA as cofactor; for SAM/MTA Ratio: ratio of Ki in the presence of SAM to Ki in the presence of MTA, Ki=IC50/1.5 (SAM), Ki=IC50/13.5 (MTA). The format is biochemical. The source says: (§1) The Ki values can be calculated from the IC50 values as described in the Examples section. As detailed in the Examples section, for the assay performed in the presence of SAM, IC50=Ki×1.5 (Ki=IC50/1.5). For the assay performed in the presence of MTA, IC50=Ki×13.5 (Ki=IC50/13.5). Column 6 indicates the ratio between the Ki of compounds in the presence of SAM and the Ki of compounds in the presence of MTA

In experiment [2] the target is T1, PRMT5. The experiment can be described thus: PRMT5 inhibition assay with no cofactor. The format is biochemical. Conditions: against PRMT5 with no cofactor; read-out: No Co-factor IC50.
Experiment [3] has as its system HAP1 MTAP-intact cell line. The experiment is described as follows: SDMA in-cell western assay, HAP1 MTAP-intact. The experiment is classed as cell-based. To be noted: Homo sapiens. In outline: (§2)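 IC50 values come from an SDMA in-cell western run in isogenic HAP1 cells, either MTAP-null or expressing endogenous MTAP. The intact-to-deleted IC50 ratio is used to score MTAP selectivity.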

Experiment [4] concerns HAP1 MTAP-deleted cell line. The experiment is described as follows: SDMA in-cell western assay, HAP1 MTAP-deleted. The format is cell-based. Conditions: for pIC50: Homo sapiens, HAP1 MTAP-deleted (MTAP-null) cell line; for MTAP Intact/Deleted Ratio: IC50 ratio HAP1 MTAP-intact / HAP1 MTAP-deleted, >=3 fold considered MTAP-selective. In a few lines:
as §2

The target of experiment [5] is T1, PRMT5. The experiment can be described thus: PRMT5 inhibition assay with SAM as cofactor. Conditions: against PRMT5 in the presence of SAM as cofactor. The format is biochemical.
Source text: as §1

T1 sequence (O14744 whole entry): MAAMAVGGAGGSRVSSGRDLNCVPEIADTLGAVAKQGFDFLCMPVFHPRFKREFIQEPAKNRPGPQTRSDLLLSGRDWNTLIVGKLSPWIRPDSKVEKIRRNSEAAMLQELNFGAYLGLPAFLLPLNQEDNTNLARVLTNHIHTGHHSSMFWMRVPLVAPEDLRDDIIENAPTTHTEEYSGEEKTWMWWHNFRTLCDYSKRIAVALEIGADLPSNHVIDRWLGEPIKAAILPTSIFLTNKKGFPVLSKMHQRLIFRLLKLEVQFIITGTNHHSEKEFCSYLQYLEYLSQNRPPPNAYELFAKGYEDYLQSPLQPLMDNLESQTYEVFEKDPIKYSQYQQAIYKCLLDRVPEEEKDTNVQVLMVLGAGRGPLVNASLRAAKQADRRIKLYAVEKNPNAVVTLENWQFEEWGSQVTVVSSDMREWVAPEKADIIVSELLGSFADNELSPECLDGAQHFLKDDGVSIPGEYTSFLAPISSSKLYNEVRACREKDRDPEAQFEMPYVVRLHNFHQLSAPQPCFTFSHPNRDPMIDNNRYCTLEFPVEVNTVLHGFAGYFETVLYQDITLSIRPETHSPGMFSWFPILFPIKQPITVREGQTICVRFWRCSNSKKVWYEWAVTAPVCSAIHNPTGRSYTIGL
T1 sequence (Q9BQA1 whole entry partner): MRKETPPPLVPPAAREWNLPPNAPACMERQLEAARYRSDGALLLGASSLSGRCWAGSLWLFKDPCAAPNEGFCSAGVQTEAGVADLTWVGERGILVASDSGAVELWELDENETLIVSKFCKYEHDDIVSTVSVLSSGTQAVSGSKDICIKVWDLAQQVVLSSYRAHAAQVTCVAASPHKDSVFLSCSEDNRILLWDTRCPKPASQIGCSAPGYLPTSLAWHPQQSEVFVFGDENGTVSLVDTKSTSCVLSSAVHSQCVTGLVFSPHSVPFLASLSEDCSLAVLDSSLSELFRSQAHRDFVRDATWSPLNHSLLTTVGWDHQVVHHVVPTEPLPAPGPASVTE

Consider `Cc1ncoc1COc1ccc2c(c1)CN[C@H]([C@H](O)CNC(=O)c1cc(NC3CCC3)nc(N3CCN(C(C)C)CC3)n1)C2` [Compound 63], for which the pIC50 at PRMT5 [1] is more than 7.30; at PRMT5 [2], 6.30 to 7.30; in experiment [3] it was more than 6.00; in experiment [4], more than 6.00; on PRMT5 [5], 6.30 to 7.30. In addition, the “SAM/MTA Ratio” value at PRMT5 [1] was “A (a Ki ratio greater than or equal to 10 fold between the Ki in the presence of SAM and the Ki in the presence of MTA)”. Also, the “MTAP Intact/Deleted Ratio” value in experiment [4] was “C* (an IC50 ratio of less than 3 fold between the IC50 in the HAP1 MTAP-intact cell line and the HAP1 MTAP-deleted cell line)”.
Consider `Cc1ncoc1COc1ccc2c(c1)CN[C@H]([C@H](O)CNC(=O)c1cc(NC3CCC3)nc(N3CCCCC3)n1)C2` [Compound 49, 6-(cyclobutylamino)-N-[(2R)-2-hydroxy-2-[(3S)-7-[(4-methyloxazol-5-yl)methoxy]-1,2,3,4-tetrahydroisoquinolin-3-yl]ethyl]-2-(1-piperidyl)pyrimidine-4-carboxamide], for which the pIC50 was more than 7.30 against PRMT5 [1]; 6.30 to 7.30 at PRMT5 [2]; 5.00 to 6.00 in experiment [3]; more than 6.00 in experiment [4]; 6.30 to 7.30 on PRMT5 [5]. Moreover, the “SAM/MTA Ratio” value on PRMT5 [1] was “A (a Ki ratio greater than or equal to 10 fold between the Ki in the presence of SAM and the Ki in the presence of MTA)”. For the same compound, the “MTAP Intact/Deleted Ratio” value in experiment [4] was “A* (an IC50 ratio greater than or equal to 10 fold between the IC50 in the HAP1 MTAP-intact cell line and the HAP1 MTAP-deleted cell line)”.
